Measurements as given in article PMC8069832, “New Amides and Phosphoramidates Containing Selenium: Studies on Their Cytotoxicity and Antioxidant Activities in Breast Cancer” (Antioxidants, 2021).

Experiment: DPPH radical scavenging assay
Settings: 0.03 mg/mL, after 30 min
Experimental: The DPPH (1,1-diphenyl-2-picrylhydrazyl radical) assay measures the hydrogen donation ability of the antioxidant to convert the stable DPPH free radical into 1,1-diphenyl-2-(2,4,6-trinitrophenyl)-hydrazine. After radical reaction with the compounds, a decrease in the absorbance was detected at 517 nm, which is accompanied by a change of color from violet to light-yellow. The target compounds were dissolved in methanol to make 1 mg/mL stock solutions, which were diluted to five concentrations as test samples. Ascorbic acid was used as a standard, and the experiment was carried out on 96-well plates. The DPPH solution was prepared at a 100 µM concentration. For each test, 100 µL of DPPH solution was added to 100 µL of methanolic solution containing the tested derivatives, and the absorbance was determined at different time points. All the measurements were carried out in triplicate. Results were expressed as the percentage of the radical scavenged, calculated using the following formula:(1) % DPPH radical scavenging=Acontrol − Asample/Acontrol × 100 where Acontrol refers to the absorbance of the negative control, and Asample refers to the absorbance of the tested compounds. Results are expressed as a percentage of DPPH radical scavenged ± SEM.
. Ascorbic acid and Trolox were used as radical scavenger gold standards. […]. No correlation was found for either structure–radical scavenging activity or antitumor–radical scavenging activity, except for compound I.2f, one of the selected cytotoxic agents. To further confirm this antioxidant activity, three compounds (I.1e, I.1g and I.2i) were also evaluated as DPPH radical scavengers at a lower concentration of 0.003 mg/mL (Figure 3B).

## N#C[Se]c1ccc(NC(=O)c2ccc(C(F)(F)F)cc2)cc1 [I.2f]
  DPPH activity inhibition: greater than 35%
